Measured values from patent US7501418B2, “Fused heterocyclic isoxazoline derivatives and their use as anti-depressants” (Janssen Pharmaceutica, N.V., priority 2002, dated 2009).
Values joined by “and” are separate entries in the source; they are usually repeats but may differ in a detail not shown here. Equal values may be shown once. Where a name gives a salt, the structure may show the parent alone. Read-outs that look alike come from different tables or passages of the source.

Columns and labels:
hα2C receptor = target: T1, hα2C receptor (Homo sapiens, UniProt P18825); assay: Radioligand binding experiment for α2C-adrenergic receptor ([3H]-raulwolscine)
T1 construct: expressed in transfected cells
T1 sequence (P18825 1-462): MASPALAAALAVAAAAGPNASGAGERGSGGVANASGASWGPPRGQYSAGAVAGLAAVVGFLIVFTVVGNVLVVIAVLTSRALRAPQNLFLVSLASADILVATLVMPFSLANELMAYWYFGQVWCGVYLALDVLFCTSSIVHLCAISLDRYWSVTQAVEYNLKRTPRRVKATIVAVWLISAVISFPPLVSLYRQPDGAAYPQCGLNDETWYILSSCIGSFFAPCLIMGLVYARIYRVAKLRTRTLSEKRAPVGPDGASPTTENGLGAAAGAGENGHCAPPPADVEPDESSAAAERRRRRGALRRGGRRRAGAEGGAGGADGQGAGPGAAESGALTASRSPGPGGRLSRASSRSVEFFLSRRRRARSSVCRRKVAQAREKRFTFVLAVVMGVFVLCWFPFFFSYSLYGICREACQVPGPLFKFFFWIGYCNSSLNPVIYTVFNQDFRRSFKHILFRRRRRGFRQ
Protocol: (§1) In general, a low concentration of a radioligand with a high binding affinity for a particular receptor or transporter is incubated with a sample of a tissue preparation enriched in a particular receptor or transporter or with a preparation of cells expressing cloned human receptors in a buffered medium. During the incubation, the radioligand binds to the receptor or transporter. When equilibrium of binding is reached, the receptor bound radioactivity is separated from the non-bound radioactivity, and the receptor- or transporter-bound activity is counted. The interaction of the test compounds with the receptor is assessed in competition binding experiments. Various concentrations of the test compound are added to the incubation mixture containing the receptor- or transporter preparation and the radioligand. The test compound in proportion to its binding affinity and its concentration inhibits binding of the radioligand. The radioligand used for hα2A, hα2B and hα2C receptor binding was [^3H]-raulwolscine and for the h5-HT transporter was [^3H]paroxetine. CHO cells, stabile transfected with human adrenergic-α2A-, -α2B or α2C receptor cDNA, were cultured in Dulbecco's Modified Eagle's Medium (DMEM)/Nutrient mixture Ham's F12 (ratio 1:1)(Gibco, Gent-Belgium) supplemented with 10% heat inactivated fetal calf serum (Life Technologies, Merelbeke-Belgium) and antibiotics (100 IU/ml penicillin G, 100 μg/ml streptomycin sulphate, 110 μg/ml pyruvic acid and 100 μg/ml L-glutamine). One day before collection, cells were induced with 5 mM sodiumbutyrate. Upon 80-90% of confluence, cells were scraped in phosphate buffered saline without Ca^2+ and Mg^2+ and collected by centrifugation at 1500×g for 10 min. The cells were homogenised in Tris-HCl 50 mM using an Ultraturrax homogenizer and centrifuged for 10 min at 23,500×g. The pellet was washed once by resuspension and rehomogenization and the final pellet was resuspended in Tris-HCl, divided in 1 ml aliquots and stored at −70° C. Membranes were thawed and re-homogenized in incubation buffer (glycylglycine 25 mM, pH 8.0). In a total volume of 500 μl, 2-10 μg protein was incubated with [^3H]raulwolscine (NET-722) (New England Nuclear, USA) (1 nM final concentration) with or without competitor for 60 min at 25° C. followed by rapid filtration over GF/B filter using a Filtermate196 harvester (Packard, Meriden, Conn.). Filters were rinsed extensively with ice-cold rinsing buffer (Tris-HCl 50 mM pH 7.4). Filter-bound radioactivity was determined by scintillation counting in a Topcount (Packard, Meriden, Conn.) and results were expressed as counts per minute (cpm). Non-specific binding was determined in the presence of 1 μM oxymetazoline for hα2A- and hα2B receptors and 1 μM spiroxatrine for hα2C receptors. Data from assays in the presence of compound were calculated as a percentage of total binding measured in the absence of test compound. Inhibition curves, plotting percent of total binding versus the log value of the concentration of the test compound, were automatically generated, and sigmoidal inhibition curves were fitted using non-linear regression. The pIC50 values of test compounds were derived from individual curves.

hα2B receptor = target: T2, hα2B receptor (Homo sapiens, UniProt P18089); assay: Radioligand binding experiment for α2B-adrenergic receptor ([3H]-raulwolscine)
T2 construct: expressed in transfected cells
T2 sequence (P18089 1-450): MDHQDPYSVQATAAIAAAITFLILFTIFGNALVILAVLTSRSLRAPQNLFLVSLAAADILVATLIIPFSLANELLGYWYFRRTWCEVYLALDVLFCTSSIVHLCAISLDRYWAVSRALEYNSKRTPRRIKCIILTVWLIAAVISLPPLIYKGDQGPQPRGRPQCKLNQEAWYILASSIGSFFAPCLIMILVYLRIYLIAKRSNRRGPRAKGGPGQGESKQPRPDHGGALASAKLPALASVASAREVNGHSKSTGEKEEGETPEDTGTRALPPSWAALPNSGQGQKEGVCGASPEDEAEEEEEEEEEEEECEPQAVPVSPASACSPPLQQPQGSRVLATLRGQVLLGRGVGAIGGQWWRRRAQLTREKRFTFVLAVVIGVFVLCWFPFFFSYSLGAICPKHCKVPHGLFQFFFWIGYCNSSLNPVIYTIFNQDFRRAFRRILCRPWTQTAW
Protocol: as §1

h5-HT transporter = target: T3, h5-HT transporter (Homo sapiens, UniProt P31645); assay: Radioligand binding experiment for 5-HT transporter ([3H]paroxetine); settings: human platelet membranes, [3H]paroxetine 0.5 nM
T3 construct: Human platelet membranes (Oceanix Biosciences Corporation, Hanover, Md., USA) were thawed; tissue Oceanix Biosciences Corporation, Hanover, Md., USA; host or cells: human platelet membranes
Protocol: In general, a low concentration of a radioligand with a high binding affinity for a particular receptor or transporter is incubated with a sample of a tissue preparation enriched in a particular receptor or transporter or with a preparation of cells expressing cloned human receptors in a buffered medium. During the incubation, the radioligand binds to the receptor or transporter. When equilibrium of binding is reached, the receptor bound radioactivity is separated from the non-bound radioactivity, and the receptor- or transporter-bound activity is counted. The interaction of the test compounds with the receptor is assessed in competition binding experiments. Various concentrations of the test compound are added to the incubation mixture containing the receptor- or transporter preparation and the radioligand. The test compound in proportion to its binding affinity and its concentration inhibits binding of the radioligand. The radioligand used for hα2A, hα2B and hα2C receptor binding was [^3H]-raulwolscine and for the h5-HT transporter was [^3H]paroxetine. Human platelet membranes (Oceanix Biosciences Corporation, Hanover, Md., USA) were thawed, diluted in buffer (Tris-HCl 50 mM, 120 mM NaCl and 5 mM KCl) and quickly (max 3 s) homogenised with an Ultraturrax homogenizer. In a total volume of 250 μL, 50-100 μg protein was incubated with [^3H]paroxetine (NET-869) (New England Nuclear, USA) (0.5 nM final concentration) with or without competitor for 60 min at 25 ° C. Incubation was stopped by rapid filtration of the incubation mixture over GF/B filters, pre-wetted with 0.1% polyethyleneamine, using a Filtermate196 harvester (Packard, Meriden, Conn.). Filters were rinsed extensively with ice-cold buffer and radioactivity on the filters was counted in a Topcount liquid scintillation counter (Packard, Meriden, Conn.). Data were expressed as cpm. Imipramine (at 1 μM final concentration) was used to determine the non-specific binding. Data from assays in the presence of compound were calculated as a percentage of total binding measured in the absence of test compound. Inhibition curves, plotting percent of total binding versus the log value of the concentration of the test compound, were automatically generated, and sigmoidal inhibition curves were fitted using non-linear regression. The pIC50 values of test compounds were derived from individual curves.

hα2A receptor = target: T4, hα2A receptor (Homo sapiens, UniProt P08913); assay: Radioligand binding experiment for α2A-adrenergic receptor ([3H]-raulwolscine); settings: CHO cell membranes with human α2A receptor, [3H]raulwolscine 1 nM
T4 construct: expressed in transfected cells
T4 sequence (P08913 1-465): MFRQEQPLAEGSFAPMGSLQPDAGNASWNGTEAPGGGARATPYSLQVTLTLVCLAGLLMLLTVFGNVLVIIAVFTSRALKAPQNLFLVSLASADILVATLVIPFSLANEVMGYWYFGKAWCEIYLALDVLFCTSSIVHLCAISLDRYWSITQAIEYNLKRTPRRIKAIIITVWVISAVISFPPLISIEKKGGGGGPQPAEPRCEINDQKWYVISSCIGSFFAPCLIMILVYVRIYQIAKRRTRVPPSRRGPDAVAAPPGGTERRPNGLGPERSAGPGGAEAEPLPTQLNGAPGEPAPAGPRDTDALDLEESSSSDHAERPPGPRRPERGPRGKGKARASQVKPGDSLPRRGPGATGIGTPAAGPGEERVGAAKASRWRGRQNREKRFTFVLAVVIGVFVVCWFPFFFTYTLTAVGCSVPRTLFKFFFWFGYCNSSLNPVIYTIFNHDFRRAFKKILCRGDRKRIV
Protocol: as §1

[1] = hα2C (pIC50), CHO cell membranes with human α2C receptor, [3H]raulwolscine 1 nM
[2] = hα2B (pIC50), CHO cell membranes with human α2B receptor, [3H]raulwolscine 1 nM
[3] = CHO cell membranes with human α2C receptor, [3H]raulwolscine 1 nM, read-out: hα2C (pIC50) (converted)
[4] = read-out: 5-HTT (pIC50) (converted)
[5] = read-out: hα2A (pIC50) (converted)

T3 sequence (P31645 whole entry): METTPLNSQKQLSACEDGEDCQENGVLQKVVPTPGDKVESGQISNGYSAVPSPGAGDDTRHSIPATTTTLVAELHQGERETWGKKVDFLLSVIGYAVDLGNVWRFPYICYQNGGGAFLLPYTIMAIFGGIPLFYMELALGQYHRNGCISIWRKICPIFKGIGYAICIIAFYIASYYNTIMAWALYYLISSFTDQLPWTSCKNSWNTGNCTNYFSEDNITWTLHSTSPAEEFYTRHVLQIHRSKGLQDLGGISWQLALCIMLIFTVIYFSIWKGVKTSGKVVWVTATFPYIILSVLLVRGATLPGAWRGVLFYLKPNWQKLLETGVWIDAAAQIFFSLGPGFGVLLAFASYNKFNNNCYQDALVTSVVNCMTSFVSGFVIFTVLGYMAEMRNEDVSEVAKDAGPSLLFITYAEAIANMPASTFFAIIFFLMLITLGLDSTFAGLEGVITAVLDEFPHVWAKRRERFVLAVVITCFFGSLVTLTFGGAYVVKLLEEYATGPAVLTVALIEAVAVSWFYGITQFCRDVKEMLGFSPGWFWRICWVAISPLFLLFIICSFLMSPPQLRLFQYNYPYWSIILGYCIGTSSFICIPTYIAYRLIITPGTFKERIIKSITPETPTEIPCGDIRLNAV

Row | IC50 (hα2C receptor; [3]) [nM] | IC50 (h5-HT transporter; [4]) | IC50 (hα2A receptor; [5]) | Structure (SMILES) | melting point [°C] | IC50 (h5-HT transporter; 5-HTT (pIC50)) [nM] | IC50 (hα2A receptor; hα2A (pIC50)) [nM] | IC50 (hα2C receptor; [1]) [nM] | IC50 (hα2B receptor; [2]) [nM] | further results
1 |  |  |  | C/C(=C\c1ccccc1)CN1CCN(CC2ON=C3c4ccncc4OCC32)CC1 (stereo not drawn) (as salt: oxalate) [Compound 18, 3-[4-(2-methyl-3-phenyl-allyl)-piperazin-1-ylmethyl]-3a,4-dihydro-3H-2,5-dioxa-1,7-diaza-cyclopenta[a]naphthalene oxalate salt (1/1)] | 216.8 to 220.5 |  |  |  |  | 
2 |  |  |  | C/C(=C\c1ccccc1)CN1CCN(C[C@@H]2ON=C3c4cc5cc[nH]c5cc4OC[C@H]32)CC1 (relative stereo) [Compound 1, 3-[4-(2-Methyl-3-phenyl-allyl)-piperazin-1-ylmethyl]-3a,4-dihydro-3H-2,5-dioxa-1,7-diaza-dicyclopenta[a,g]naphthalene] | 173.2 to 179.1 | 3.98 | 5.01 |  |  | IC50 (hα2C receptor): 1 nM; IC50 (hα2B receptor): 3.98 nM
3 |  |  |  | C/C(=C\c1ccccc1)CN1CCN(CC2ON=C3c4cc5ccn(CCO)c5cc4OCC32)CC1 (single isomer, unassigned) [Compound 16, A-2-{3-[4-(2-methyl-3-phenyl-allyl)-piperazin-1-ylmethyl]-3a,4-dihydro-3H-2,5-dioxa-1,7-diaza-dicyclopenta[a,g]naphthalen7-yl}-ethanol] | 167.9 to 170.2 |  | 316 | 50.1 | 20 | 5-HTT (pIC50) (h5-HT transporter): 6.3
4 |  |  |  | C/C(=C\c1ccccc1)CN1CCN(CC2ON=C3c4cc5ccn(CCO)c5cc4OCC32)CC1 (single isomer, unassigned) [Compound 17, B-2-{3-[4-(2-methyl-3-phenyl-allyl)-piperazin-1-ylmethyl]-3a,4-dihydro-3H-2,5-dioxa-1,7-diaza-dicyclopenta[a,g]naphthalen7-yl}-ethanol] | 167.5 to 170.5 | 501 | 10 | 2 | 5.01 | 
5 |  |  |  | C/C(=C\c1ccccc1)CN1CCN(CC2ON=C3c4cc5ccn(CCO)c5cc4OCC32)CC1 (stereo not drawn) [Compound 8] |  | 3.98 | 15.8 | 2 | 5.01 | 
6 |  |  |  | COC(=O)Cn1ccc2cc3c(cc21)OCC1C3=NOC1CN1CCN(C/C(C)=C/c2ccccc2)CC1 (stereo not drawn) [Compound 10, {3-[4-(2-methyl-3-phenyl-allyl)-piperazin-1-ylmethyl]-3a,4-dihydro-3H-2,5-dioxa-1,7-diaza-dicyclopenta[a,g]naphthlen-7-yl}-acetic acid methyl ester] |  | 2 | 12.6 |  |  | IC50 (hα2C receptor): 0.794 nM; IC50 (hα2B receptor): 5.01 nM
7 | 1.58 | 200 nM and 31.6 nM | 1.26 nM and 1.58 nM | C/C(=C\c1ccccc1)CN1CCN(CC2ON=C3c4ccncc4OCC32)CC1 (stereo not drawn) [Compound 18, 3-[4-(2-methyl-3-phenyl-allyl)-piperazin-1-ylmethyl]-3a,4-dihydro-3H-2,5-dioxa-1,7-diaza-cyclopenta[a]naphthalene oxalate salt (1/1)] |  |  |  |  |  | IC50 (hα2B receptor; CHO cell membranes with human α2B receptor, [3H]raulwolscine 1 nM, read-out: hα2B (pIC50) (converted)): 1.58 nM
8 | 31.6 | 200 nM | 6.31 nM | C/C(=C\c1ccc(F)cc1)CN1CCN(CC2ON=C3c4ncccc4OCC32)CC1 (stereo not drawn) [Compound 24, 3-{4-[3-(4-fluoro-phenyl)-2-methyl-allyl]-piperazin-1-ylmethyl}-3a,4-dihydro-3H-2,5-dioxa-1,9-diaza-cyclopenta[a]naphthalene] | 145.6 to 152.3 |  |  |  |  | 
9 | 7.94 | 79.4 nM | 2 nM | C/C(=C\c1ccc(F)cc1)CN1CCN(CC2ON=C3c4sccc4OCC32)CC1 (stereo not drawn) [Compound 27, 3-{4-[3-(4-fluoro-pheny)-2-methyl-allyl]-piperazin-1-ylmethyl}-3a,4-dihydro-3H-2,5-dioxa-8-thia-1-aza-as-indacene] | 142.3 to 146 |  |  |  |  | 
